Eleven compounds from patent US8093250B2, “2-aminocarbonyl-pyridine derivatives” (Actelion Pharmaceuticals Ltd., priority 2006, dated 2012) can be followed below.

The assay deals with T1, human P2Y12 receptor (Homo sapiens, UniProt Q9H244).
T1 construct: expressed in transfected cells; host or cells: Chinese Hamster Ovary (CHO) cells
T1 sequence (Q9H244 whole entry): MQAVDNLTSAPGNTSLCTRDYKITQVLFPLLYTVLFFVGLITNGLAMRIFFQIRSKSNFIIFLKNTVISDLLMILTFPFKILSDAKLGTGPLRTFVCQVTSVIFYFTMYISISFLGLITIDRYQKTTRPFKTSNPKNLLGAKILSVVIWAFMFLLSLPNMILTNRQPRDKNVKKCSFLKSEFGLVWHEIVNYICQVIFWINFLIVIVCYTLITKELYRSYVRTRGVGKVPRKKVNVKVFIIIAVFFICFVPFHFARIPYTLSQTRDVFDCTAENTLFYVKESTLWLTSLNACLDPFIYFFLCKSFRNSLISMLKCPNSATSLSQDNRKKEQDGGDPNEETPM
As to the kind of experiment: P2Y12 receptor binding assay. Particulars: CHO cells with recombinant human P2Y12 receptor; tritium-labeled 2-methyl-S-ADP; 2 hours at RT. The procedure: Chinese Hamster Ovary (CHO) cells with recombinant expression of the human P2Y12 receptor were cultured in 24 well cell-culture plates. Cells were washed three times with binding buffer (50 mM Tris pH 7.4, 100 mM NaCl, 1 mM EDTA, 0.5% BSA). The cells were then incubated with 0.5 ml per well binding buffer containing tritium-labeled 2-methyl-thio-adenosine 5′-diphosphate (2-methyl-S-ADP) (between 100'000 and 300'000 dpm per well) and various concentrations of test compounds. After incubation at RT for 2 hours, cells were washed three times with binding buffer. Then, cells were solubilized by addition of 0.5 ml solubilization buffer (SDS, NaOH, EDTA). The content of each well was then transferred into beta-counter vials and 2.0 ml of Ultima Gold Scintillation liquid was added.
As a reminder, the IC50 is the concentration that inhibits the measured activity by half. `CCOC(=O)N1CCN(C(=O)[C@H](CCC(=O)O)NC(=O)c2cc(Cl)cc(-c3ccccc3)n2)CC1` [Example 1, 4-{(S)-4-carboxy-2-[(4-chloro-6-phenyl-pyridine-2-carbonyl)-amino]-butyryl}-piperazine-1-carboxylic acid ethyl ester]: the IC50 was found to be 34 nM.
To `CCOC(=O)N1CCN(C(=O)[C@H](CO)NC(=O)c2cc(-c3ccccc3)cc(-c3ccccc3)n2)CC1` [Example 24, 4-{(S)-2-[(4,6-diphenyl-pyridine-2-carbonyl)-amino]-3-hydroxy-propionyl}-piperazine-1-carboxylic acid ethyl ester] belongs 204 nM.
Under `CCOC(=O)N1CCN(C(=O)[C@H](CCC(=O)O)NC(=O)c2cc(CCC(C)(C)O)cc(-c3ccccc3)n2)CC1` [Example 28, 4-((S)-4-carboxy-2-{[4-(3-hydroxy-3-methyl-butyl)-6-phenyl-pyridine-2-carbonyl]-amino}-butyryl)-piperazine-1-carboxylic acid ethyl ester] stands 96 nM.
Consider `CCOC(=O)N1CCN(C(=O)[C@H](CCC(=O)O)NC(=O)c2cc(-c3ccsc3)cc(-c3ccccc3)n2)CC1` [Example 32, 4-{(S)-4-carboxy-2-[(6-phenyl-4-thiophen-3-yl-pyridine-2-carbonyl)-amino]-butyryl}-piperazine-1-carboxylic acid ethyl ester], for which the IC50 is 67 nM.
To `CCOC(=O)N1CCN(C(=O)[C@H](CCC(=O)O)NC(=O)c2cc(OC3CCOC3)cc(-c3ccccc3)n2)CC1` (stereo partly drawn) [Example 37, 4-((S)-4-carboxy-2-{[6-phenyl-4-(tetrahydro-furan-3-yloxy)-pyridine-2-carbonyl]-amino}-butyryl)-piperazine-1-carboxylic acid ethyl ester] belongs 94 nM; to `CCOC(=O)N1CCN(C(=O)[C@H](CCC(=O)OC(C)(C)C)NC(=O)c2cc(Cl)cc(-c3ccccc3)n2)CC1` [Example 39, 4-{(S)-4-O-tert-butoxycarbonyl-2-[(4-chloro-6-phenyl-pyridine-2-carbonyl)-amino]-butyryl}-piperazine-1-carboxylic acid ethyl ester], 2150 nM.
To `CCOC(=O)N1CCN(C(=O)[C@H](Cc2nn[nH]n2)NC(=O)c2cc(-c3ccccc3)cc(-c3ccccc3)n2)CC1` [Example 66, 4-[(S)-2-[(4,6-diphenyl-pyridine-2-carbonyl)-amino]-3-(2H-tetrazol-5-yl)-propionyl]-piperazine-1-carboxylic acid ethyl ester] belongs 40 nM; to `CCCCOC(=O)N1CCN(C(=O)[C@@H](NC(=O)c2cc(N3CC[C@H](OC)C3)cc(-c3ccccc3)n2)C(C)C)CC1` [Example 69, 4-((S)-2-{[4-((S)-3-methoxy-pyrrolidin-1-yl)-6-phenyl-pyridine-2-carbonyl]-amino}-3-methyl-butyryl)-piperazine-1-carboxylic acid butyl ester], 109 nM; to `CCOC(=O)N1CCN(C(=O)[C@H](CCC(=O)O)NC(=O)c2nc(-c3ccccc3)cc(C3CC3)c2OC)CC1` [Example 71, 4-{(S)-4-carboxy-2-[(4-cyclopropyl-3-methoxy-6-phenyl-pyridine-2-carbonyl)-amino]-butyryl}-piperazine-1-carboxylic acid ethyl ester], 510 nM.
To `CCCCOC(=O)N1CCN(C(=O)[C@H](CCC(=O)OC(C)(C)C)NC(=O)c2cc(N3CC[C@H](OC)C3)cc(-c3ccccc3)n2)CC1` [Example 72, 4-((S)-4-tert-butoxycarbonyl-2-{[4-((S)-3-methoxy-pyrrolidin-1-yl)-6-phenyl-pyridine-2-carbonyl]-amino}-butyryl)-piperazine-1-carboxylic acid butyl ester] belongs 1760 nM; to `CCCCNc1cc(C(=O)N[C@@H](CCC(=O)O)C(=O)N2CCN(C(=O)OCC)CC2)nc(-c2ccccc2)c1F` [Example 75, 4-{(S)-2-[(4-butylamino-5-fluoro-6-phenyl-pyridine-2-carbonyl)-amino]-4-carboxy-butyryl}-piperazine-1-carboxylic acid ethyl ester], 386 nM.
